pIC50: −log10 of the molar value. Where two headings read alike, the source gives them in different places.
Assays:
[1] = biological target: CDK6/Cyclin D3 (Homo sapiens (Human), UniProt Q00534); test: CDK6/Cyclin D3 ADP-Glo Kinase Assay; assay type: biochemical; details: 100 uM ATP, read-out: CDK6/ CyclinD3 IC50
How it was run: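 Luminescent ADP-Glo read-out of ADP produced, used to fit IC50 (4-parameter equation on fractional velocity against inhibitor concentration). Kinase reaction: enzyme and inhibitor together 30 min, then ATP-containing substrate added for 90 min, all at room temperature.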

[2] = system: MCF-7 cells; test: Cell Growth Inhibition, MCF-7 (CellTiterGlo, 6 days); assay type: cell-based; details: Homo sapiens, MCF7, 144 h; MCF-7, 6-day treatment, CellTiterGlo 2.0
How it was run: (§1)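 Compounds were run in half-log series, usually 10–10,000 nM, with 500 cells/well of OVCAR-3 or MCF-7 in RPMI plus 10% FBS. After a 6-day culture at 37 °C, viability was read by CellTiterGlo luminescence. Inhibition relative to control was fitted (four-parameter, variable slope) for IC50.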

[3] = biological target: CDK2/Cyclin E1 full length (Homo sapiens (Human), UniProt P24941); test: CDK2/Cyclin E1 Full Length ADP-Glo Kinase Assay; assay type: biochemical; details: 20 uM ATP, read-out: CDK2/ CyclinE1 IC50
How it was run: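 ADP-Glo luminescence read-out of ADP formed by 0.328 nM wild-type full-length CDK2/Cyclin E1, 90 min at room temperature with 0.75 uM substrate and 20 uM ATP (Km 64.78 uM), after 30 min enzyme–inhibitor pre-incubation; 50 mM HEPES pH 7.5, 2% DMSO. Four-parameter IC50 fit.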

[4] = system: OVCAR-3 cells; test: Cell Growth Inhibition, OVCAR-3 (CellTiterGlo, 6 days); assay type: cell-based; details: Homo sapiens, 144 h; OVCAR-3, 6-day treatment, CellTiterGlo 2.0
How it was run: as §1

[5] = biological target: CDK1/Cyclin B1 (Homo sapiens (Human), UniProt P06493); test: CDK1/Cyclin B1 ADP-Glo Kinase Assay; assay type: biochemical; details: 80 uM ATP
How it was run: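 Luminescent ADP-Glo detection of ADP produced over 90 min at room temperature. Enzyme complex 4.917 nM, pre-exposed 30 min to inhibitor; ATP 80 µM (near Km 78.6 µM), substrate 0.75 µM, HEPES pH 7.5, 2% DMSO. Fractional velocity fitted to 4-parameter IC50 equation.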

[6] = biological target: CDK4/Cyclin D1 (Homo sapiens (Human), UniProt P11802); test: CDK4/Cyclin D1 Mobility Shift Assay (MSA); assay type: biochemical; details: 0.2 mM ATP, read-out: CDK4/ CyclinD1 MSA IC50
Description: CDK4/Cyclin D1 Mobility Shift Assay (MSA)
The purpose CDK4/Cyclin D1 assay is to evaluate the inhibition (% inhibition and IC50 values) in the presence of small molecule inhibitors by using a fluorescence based microfluidic mobility shift assay. CDK4/Cyclin D1 catalyzes the production of ADP from ATP that accompanies the phosphoryl transfer to the substrate peptide 5-FAM-Dyrktide (5-FAM-RRRFRPASPLRGPPK) (Perkin Elmer Peptide 34). The mobility shift assay (MSA) electrophoretically separates the fluorescently labelled peptides (substrate and phosphorylated product) following the kinase reaction. Both substrate and product are measured, and the ratio of these values is used to generate % conversion of substrate to product by the LabChip EZ Reader. Typical reaction solutions contained 2% DMSO (+/−inhibitor), 10 mM MgCl2, 1 mM EGTA, 0.05% BSA, 2 mM DTT, 0.2 mM ATP, 0.01% Brig-35, 1.5 uM 5-FAM-Dyrktide, 2.5 nM CDK4/Cyclin D1 in 50 mM HEPES buffer at pH 7.5. The reaction was initiated with the addition of substrate solution, following a 30-minute pre-incubation of enzyme and inhibitor at 22° C. in the reaction mix. The reaction was stopped after 180 minutes by the addition of 75 uL of 500 mM EDTA and measured on a Perkin Elmer EZ reader instrument. IC50 determinations were made from a plot of the fractional velocity as a function of inhibitor concentration fit to the 4 parameters IC50 equation.

Sequence of CDK6/Cyclin D3 (Q00534 whole entry): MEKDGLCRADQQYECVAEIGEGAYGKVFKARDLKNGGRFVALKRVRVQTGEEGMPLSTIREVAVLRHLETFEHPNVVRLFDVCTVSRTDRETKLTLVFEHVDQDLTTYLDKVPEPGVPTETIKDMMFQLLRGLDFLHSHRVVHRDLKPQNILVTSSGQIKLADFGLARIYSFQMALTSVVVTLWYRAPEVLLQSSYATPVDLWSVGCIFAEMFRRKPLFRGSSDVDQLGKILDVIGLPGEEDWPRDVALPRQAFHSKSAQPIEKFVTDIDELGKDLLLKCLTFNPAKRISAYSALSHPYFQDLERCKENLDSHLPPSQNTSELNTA
Sequence of CDK6/Cyclin D3 (P30281 whole entry partner): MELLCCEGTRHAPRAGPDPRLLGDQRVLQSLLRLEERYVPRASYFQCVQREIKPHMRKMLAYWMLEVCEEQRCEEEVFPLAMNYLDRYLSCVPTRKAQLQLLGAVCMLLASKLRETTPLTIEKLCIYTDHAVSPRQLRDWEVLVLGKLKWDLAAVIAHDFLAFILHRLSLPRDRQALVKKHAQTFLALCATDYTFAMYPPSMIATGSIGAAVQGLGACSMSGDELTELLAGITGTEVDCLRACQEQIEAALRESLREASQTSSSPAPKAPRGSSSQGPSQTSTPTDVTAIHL
Sequence of CDK1/Cyclin B1 (P06493 whole entry): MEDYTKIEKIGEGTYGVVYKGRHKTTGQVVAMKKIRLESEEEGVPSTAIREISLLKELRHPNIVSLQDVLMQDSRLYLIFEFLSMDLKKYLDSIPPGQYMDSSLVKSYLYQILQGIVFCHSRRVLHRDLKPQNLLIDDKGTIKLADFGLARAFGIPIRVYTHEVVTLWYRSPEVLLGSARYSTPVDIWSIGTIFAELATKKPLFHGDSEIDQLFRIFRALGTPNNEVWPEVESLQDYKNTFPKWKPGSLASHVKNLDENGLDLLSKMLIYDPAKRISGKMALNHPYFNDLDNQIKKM
Sequence of CDK1/Cyclin B1 (P14635 whole entry partner): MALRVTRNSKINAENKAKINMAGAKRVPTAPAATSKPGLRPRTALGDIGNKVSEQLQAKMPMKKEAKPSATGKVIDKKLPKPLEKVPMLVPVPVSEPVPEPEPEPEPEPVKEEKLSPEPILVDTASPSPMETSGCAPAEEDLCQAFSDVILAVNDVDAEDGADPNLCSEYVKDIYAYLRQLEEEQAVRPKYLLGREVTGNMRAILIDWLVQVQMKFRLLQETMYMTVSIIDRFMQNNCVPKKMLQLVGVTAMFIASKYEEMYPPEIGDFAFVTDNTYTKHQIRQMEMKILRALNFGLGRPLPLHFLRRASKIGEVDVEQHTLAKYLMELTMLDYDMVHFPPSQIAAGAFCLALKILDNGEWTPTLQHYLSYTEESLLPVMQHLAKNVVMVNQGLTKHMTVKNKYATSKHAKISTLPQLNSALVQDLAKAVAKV
Sequence of CDK4/Cyclin D1 (P11802 whole entry): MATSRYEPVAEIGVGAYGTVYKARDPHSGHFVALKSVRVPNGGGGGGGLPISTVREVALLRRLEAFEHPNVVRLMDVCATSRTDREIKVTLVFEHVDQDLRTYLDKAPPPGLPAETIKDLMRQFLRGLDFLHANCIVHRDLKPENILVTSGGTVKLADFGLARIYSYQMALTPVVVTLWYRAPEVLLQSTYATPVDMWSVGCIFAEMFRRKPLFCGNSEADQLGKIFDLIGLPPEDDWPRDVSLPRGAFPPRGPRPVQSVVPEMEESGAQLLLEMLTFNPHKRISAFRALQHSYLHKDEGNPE
Sequence of CDK4/Cyclin D1 (P24385 whole entry partner): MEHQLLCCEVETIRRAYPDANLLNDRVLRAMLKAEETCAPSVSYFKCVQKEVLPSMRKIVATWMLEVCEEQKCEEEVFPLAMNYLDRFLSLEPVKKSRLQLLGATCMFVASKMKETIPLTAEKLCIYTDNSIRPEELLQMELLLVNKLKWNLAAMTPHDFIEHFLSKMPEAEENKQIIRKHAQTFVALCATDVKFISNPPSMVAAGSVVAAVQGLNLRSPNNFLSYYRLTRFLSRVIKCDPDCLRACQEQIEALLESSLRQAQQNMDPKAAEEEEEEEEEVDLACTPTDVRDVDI

Compound	pIC50 [1]	pIC50 [2]	pIC50 [3]	pIC50 [4]	pIC50 [5]	pIC50 [6]	pIC50 ([3]; given as number)
CS(=O)(=O)N1CCC(Nc2ncc3cccc(N4CCC5(CNC5)C4)c3n2)CC1 [Example 15, N-(1-(methylsulfonyl)piperidin-4-yl)-8-(2,6-diazaspiro[3.4]octan-6-yl)quinazolin-2-amine]	6.30 to 6.70	6.30 to 6.70	> 6.70	5.70 to 6.30	6.30 to 6.70	> 6.70	
CS(=O)(=O)N1CCC(Nc2ncc3cccc(N4CCC5(CCOCC5)C4)c3n2)CC1 [Example 26, N-(1-(methylsulfonyl)piperidin-4-yl)-8-(8-oxa-2-azaspiro[4.5]decan-2-yl)quinazolin-2-amine]	> 6.70	< 5.70	> 6.70	< 5.70	5.70 to 6.30	> 6.70	
CS(=O)(=O)N1CCC(Nc2ncc3cccc(N4CCC(C#N)(C5CC5)C4)c3n2)CC1 (stereo not shown) [Example 27, 3-cyclopropyl-1-(2-((1-(methylsulfonyl)piperidin-4-yl)amino)quinazolin-8-yl)pyrrolidine-3-carbonitrile]	> 6.70	< 5.70	> 6.70	< 5.70	5.70 to 6.30	> 6.70	
CN1CCN(C2CCN(c3cccc4cnc(NC5CCN(S(C)(=O)=O)CC5)nc34)C2)CC1 (stereo not shown) [Example 29, 8-(3-(4-methylpiperazin-1-yl)pyrrolidin-1-yl)-N-(1-(methylsulfonyl)piperidin-4-yl)quinazolin-2-amine]	< 5.70		6.30 to 6.70		< 5.70	5.70 to 6.30	
CS(=O)(=O)N1CCC(Nc2ncc3cccc(N4CC5CC(C4)O5)c3n2)CC1 [Example 30, 8-(6-oxa-3-azabicyclo[3.1.1]heptan-3-yl)-N-(1-(methylsulfonyl)piperidin-4-yl)quinazolin-2-amine]	6.30 to 6.70		> 6.70		5.70 to 6.30	> 6.70	
CS(=O)(=O)N1CCC(Nc2ncc3cccc(N4CC5(CCNC5)C4)c3n2)CC1 [Example 31, N-(1-(methylsulfonyl)piperidin-4-yl)-8-(2,6-diazaspiro[3.4]octan-2-yl)quinazolin-2-amine]	6.30 to 6.70	5.70 to 6.30	> 6.70	5.70 to 6.30	6.30 to 6.70	> 6.70	
CC(=O)N1CCC2(CCN(c3cccc4cnc(Nc5ccc(N6CCN(C)CC6)cc5)nc34)C2)C1 (stereo not shown) [Example 33, 1-(7-(2-((4-(4-methylpiperazin-1-yl)phenyl)amino)quinazolin-8-yl)-2,7-diazaspiro[4.4]nonan-2-yl)ethan-1-one]	> 6.70	< 5.70		< 5.70	< 5.70	> 6.70	5.29
CS(=O)(=O)N1CCC(Nc2ncc3cccc(N4CCC5(CCC(F)(F)C5)C4)c3n2)CC1 (stereo not shown) [Example 34, 8-(7,7-difluoro-2-azaspiro[4.4]nonan-2-yl)-N-(1-(methylsulfonyl)piperidin-4-yl)quinazolin-2-amine]	6.30 to 6.70		> 6.70		5.70 to 6.30	> 6.70	
CCN1CC2(C1)CN(c1ccc(Nc3ncc4cccc(N5CC6(CCS6(=O)=O)C5)c4n3)nc1)C2 [Example 44, 6-(2-((5-(6-ethyl-2,6-diazaspiro[3.3]heptan-2-yl)pyridin-2-yl)amino)quinazolin-8-yl)-1-thia-6-azaspiro[3.3]heptane 1,1-dioxide]	6.30 to 6.70		< 5.70	< 5.70	< 5.70	> 6.70	
CCN1CC2(C1)CN(c1ccc(Nc3ncc4cccc(N5CC6(C5)CC(F)(F)C6)c4n3)nc1)C2 [Example 49, 8-(6,6-difluoro-2-azaspiro[3.3]heptan-2-yl)-N-(5-(6-ethyl-2,6-diazaspiro[3.3]heptan-2-yl)pyridin-2-yl)quinazolin-2-amine]	6.30 to 6.70		< 5.70		< 5.70	> 6.70	
N-(1-(methyl sulfonyl) piperidin-4-yl)-8-(2,6-diazaspiro[3.4]octan-2-yl) quinazolin-2-amine [Example 32]	5.70 to 6.30		> 6.70		< 5.70	6.30 to 6.70	

Second part, the compound after the results:

pIC50 [1]	pIC50 [2]	pIC50 [3]	pIC50 [4]	pIC50 [5]	pIC50 [6]	pIC50 ([3]; given as number)	Compound
> 6.70	6.30 to 6.70	> 6.70	5.70 to 6.30	> 6.70	> 6.70		CS(=O)(=O)N1CCC(Nc2ncc3cccc(C4CCCC4)c3n2)CC1 [Example 1, 8-cyclopentyl-N-(1-(methylsulfonyl)piperidin-4-yl)quinazolin-2-amine]
> 6.70	< 5.70	> 6.70	< 5.70	5.70 to 6.30	> 6.70		CS(=O)(=O)N1CCC(Nc2ncc3cccc(N4CCC5(C4)CC(F)(F)C5)c3n2)CC1 [Example 3, 8-(2,2-difluoro-6-azaspiro[3.4]octan-6-yl)-N-(1-(methylsulfonyl)piperidin-4-yl)quinazolin-2-amine]
> 6.70	5.70 to 6.30	> 6.70	< 5.70	5.70 to 6.30	> 6.70		CS(=O)(=O)N1CCC(Nc2ncc3cccc(N4CCC5(C4)CS(=O)(=O)C5)c3n2)CC1 [Example 4, 6-(2-((1-(methylsulfonyl)piperidin-4-yl)amino)quinazolin-8-yl)-2-thia-6-azaspiro[3.4]octane 2,2-dioxide]
> 6.70	< 5.70	> 6.70	< 5.70	< 5.70	> 6.70		CC(=O)N1CCC2(CCN(c3cccc4cnc(NC5CCN(S(C)(=O)=O)CC5)nc34)C2)C1 (stereo not shown) [Example 6, 1-(7-(2-((1-(methylsulfonyl)piperidin-4-yl)amino)quinazolin-8-yl)-2,7-diazaspiro[4.4]nonan-2-yl)ethan-1-one]
> 6.70	< 5.70	> 6.70	< 5.70	6.30 to 6.70	> 6.70		CS(=O)(=O)N1CCC(Nc2ncc3cccc(N4CCC4CO)c3n2)CC1 (stereo not shown) [Example 10, (1-(2-((1-(methylsulfonyl)piperidin-4-yl)amino)quinazolin-8-yl)azetidin-2-yl)methanol]
> 6.70	< 5.70	> 6.70	< 5.70	6.30 to 6.70	> 6.70		CS(=O)(=O)N1CCC(Nc2ncc3cccc(N4CC(CC#N)C4)c3n2)CC1 [Example 14, 2-(1-(2-((1-(methylsulfonyl)piperidin-4-yl)amino)quinazolin-8-yl)azetidin-3-yl)acetonitrile]
> 6.70	5.70 to 6.30	> 6.70	5.70 to 6.30	> 6.70	> 6.70		CS(=O)(=O)N1CCC(Nc2ncc3cccc(N4CC5(CC(O)C5)C4)c3n2)CC1 [Example 18, 2-(2-((1-(methylsulfonyl)piperidin-4-yl)amino)quinazolin-8-yl)-2-azaspiro[3.3]heptan-6-ol]
> 6.70	5.70 to 6.30	> 6.70	5.70 to 6.30	6.30 to 6.70	> 6.70		CS(=O)(=O)N1CCC(Nc2ncc3cccc(N4CC5(CCS5(=O)=O)C4)c3n2)CC1 [Example 19, 6-(2-((1-(methylsulfonyl)piperidin-4-yl)amino)quinazolin-8-yl)-1-thia-6-azaspiro[3.3]heptane 1,1-dioxide]
> 6.70	5.70 to 6.30	> 6.70	5.70 to 6.30	6.30 to 6.70	> 6.70		CN1CC2(CCN(c3cccc4cnc(NC5CCN(S(C)(=O)=O)CC5)nc34)C2)C1 [Example 24, 8-(2-methyl-2,6-diazaspiro[3.4]octan-6-yl)-N-(1-(methylsulfonyl)piperidin-4-yl)quinazolin-2-amine]

Reference: patent US20240092761A1, “QUINAZOLINE COMPOUNDS AND METHODS OF USE” (IAMBIC THERAPEUTICS, INC., priority 2022, published 2024)
